Data taken from US20250000877A1, “COMPOSITION CONTAINING TAURODEOXYCHOLIC ACID OR PHARMACEUTICALLY ACCEPTABLE SALT THEREOF AS ACTIVE INGREDIENT FOR PREVENTING OR TREATING VIRAL INFECTIOUS DISEASES” (SHAPERON INC., priority 2021, published 2025).
Like-named read-outs stand apart in the source and are kept apart here.

Assays:
[1] = tested on: influenza virus CA04 (human H1N1); test: Lung lesions / histopathological scoring in influenza virus-infected animal model; type: in vivo, mice; conditions: for pathological scoring of lung lesions: score 0-4 per Table 2
Procedure: Specifically, female BLAB/C mice aged 7 weeks were purchased and allowed to acclimate for one week before the experiments commenced. The experimental animals were housed under conditions of 22±2° C. temperature, 55±5% relative humidity, and a 12-hour light-dark cycle. Water was provided ad libitum, and sterilized feed was freely accessible.
Next, as shown in the schematic diagram of FIG. 1, influenza virus CA04 (human H1N1) was intranasally inoculated at a concentration of 2LD50 (30 μl/mouse), and the drug was administered by dividing into four groups as shown in [Table 1] below. The positive control group was administered dexamethasone, an anti-inflammatory drug, as a drug, and the experimental group was administered HY209 as a low dose (1 mpk) or a high dose (4 mpk) as a drug. The drug was administered intraperitoneally at a dose of 100 μl/mouse on the third day after virus infection. In addition, lung tissues were separated and stored after autopsy of each group on the 7th day (7 dpi), 10th day (10 dpi), and 11th day (11 dpi) of virus infection.
Specifically, each of the test groups of Example 1 was autopsied on the 7th day (7 dpi), 10th day (10 dpi), and 11th day (11 dpi) of viral infection, and then the lungs were separated. The separated lung lesions were visually confirmed (FIGS. 3a to 3c), and lung lesions were scored according to the pathological scoring criteria of Table 2 below, and then graphed (FIGS. 4a and 4b).

IL-1β = type: in vivo, mice
[2] = 7 dpi, 1 mpk intraperitoneally from DPI 3, virus infection group G1 2.8±0.84
[3] = 11 dpi, 1 mpk intraperitoneally from DPI 3, virus infection group G1 4±0

| Structure (SMILES) | pathological scoring of lung lesions [1, 2] | reduction in pathological scores compared to the virus infection group (G1) ([1]; 7 dpi, 4 mpk (G4), P=0.046) | pathological scoring of lung lesions ([1]; 7 dpi, 4 mpk intraperitoneally from DPI 3, virus infection group G1 2.8±0.84) | reduction in pathological scores compared to the virus infection group (G1) ([1]; 11 dpi, 1 mpk (G2 P=0.002, G3 P=0.013)) | pathological scoring of lung lesions [1, 3] | reduction in pathological scores compared to the virus infection group (G1) ([1]; 11 dpi, 4 mpk (G4), P=0.0005) | pathological scoring of lung lesions ([1]; 11 dpi, 4 mpk intraperitoneally from DPI 3, virus infection group G1 4±0) | production of inflammatory cells in the lungs ([1]; low (1 mpk) or high (4 mpk) dose groups compared to the virus infection group, summary statement) | IL-1β levels (IL-1β; […], serum samples, HY209 1 mpk (G3) vs G1) | production of inflammatory cytokine IL-1β in the lungs (IL-1β; mouse, in vivo) | IL-1β levels in lung tissue samples (IL-1β; mouse, in vivo, 1 mg/kg) | IL-1β levels in lung tissue samples (IL-1β; mouse, in vivo, 4 mg/kg) |
| --- | --- | --- | --- | --- | --- | --- | --- | --- | --- | --- | --- | --- |
| C[C@H](CCC(=O)NCCS(=O)(=O)O)[C@H]1CC[C@H]2[C@@H]3CC[C@@H]4C[C@H](O)CC[C@]4(C)[C@H]3C[C@H](O)[C@]12C [HY209, Sodium taurodeoxycholate] | 2.6±0.55 | statistically significant reduction | 1.8±0.45 | statistically significant reduction | 2.8±0.84 | statistically significant reduction | 2.29±0.76 | reduced | significant decrease | reduced | significant decrease | significant decrease |
| C[C@@H]1C[C@H]2[C@@H]3CCC4=CC(=O)C=C[C@]4(C)[C@@]3(F)[C@@H](O)C[C@]2(C)[C@@]1(O)C(=O)CO [dexamethasone, reference compound] | 1.8±0.45 |  |  |  | 2.5±0.71 |  |  |  |  |  |  |  |
